Assay results published in PubChem BioAssay (NCI).
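Compound exposure: 48 hours, 5 concentrations, 96-well plates. GI50 is the concentration that inhibits growth by half. At the TGI there is no net growth.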

Experiments:
Experiment in all cases: NCI anticancer screen, dose series, 48 h
HCT-15 colon = system: HCT-15 colon
OVCAR-3 ovarian = system: OVCAR-3 ovarian
NCI/ADR-RES ovarian = system: NCI/ADR-RES ovarian
HCT-116 colon = system: HCT-116 colon
UACC-62 melanoma = system: UACC-62 melanoma
SF-268 CNS = system: SF-268 CNS
TK-10 renal = system: TK-10 renal
SK-MEL-2 melanoma = system: SK-MEL-2 melanoma
CAKI-1 renal = system: CAKI-1 renal
OVCAR-4 ovarian = system: OVCAR-4 ovarian

| SMILES | TGI (HCT-15 colon) [µM] | TGI (OVCAR-3 ovarian) [µM] | TGI (NCI/ADR-RES ovarian) [µM] | TGI (HCT-116 colon) [µM] | TGI (UACC-62 melanoma) [µM] | TGI (SF-268 CNS) [µM] | TGI (TK-10 renal) [µM] | TGI (SK-MEL-2 melanoma) [µM] | TGI (CAKI-1 renal) [µM] | TGI (OVCAR-4 ovarian) [µM] | GI50 (HCT-15 colon) [µM] | GI50 (OVCAR-3 ovarian) [µM] | GI50 (NCI/ADR-RES ovarian) [µM] | GI50 (HCT-116 colon) [µM] | GI50 (UACC-62 melanoma) [µM] | GI50 (SF-268 CNS) [µM] | GI50 (TK-10 renal) [µM] | GI50 (SK-MEL-2 melanoma) [µM] | GI50 (CAKI-1 renal) [µM] | GI50 (OVCAR-4 ovarian) [µM] |
| --- | --- | --- | --- | --- | --- | --- | --- | --- | --- | --- | --- | --- | --- | --- | --- | --- | --- | --- | --- | --- |
| O=C(O)/C=C/c1c2ccc(=O)c(O)c-2oc2c(O)c(O)ccc12 | > 100 | > 100 | > 100 | 40 | > 100 | > 100 | > 100 | > 100 | > 100 | > 100 |  |  |  |  |  |  |  |  |  |  |
| CC(=O)CC[N+](C)(C)C | 46.4 | 40.7 | > 76.9 | 54.4 | 52.4 | 76.8 | 38.9 | 64.4 | 3.83 | 30.2 |  |  |  |  |  |  |  |  |  |  |
| CCN(Cc1cc(Cl)cc(C)c1O)Cc1c(O)ccc2ccccc12 | 30.5 | 29 | 32 | 33.1 | 31.4 | 34.8 | 31 | 32.7 | 28.8 | 31.6 |  |  |  |  |  |  |  |  |  |  |
| O=C(O)c1cccc([As]=[As]c2cccc(C(=O)O)c2)c1 (stereo not drawn) | > 100 | > 100 | > 100 | > 100 | > 100 | 72.7 | 57.1 | 55.6 | 37.1 | > 100 |  |  |  |  |  |  |  |  |  |  |
| CCCC(=O)Oc1ccc(/C(=C(\C)c2ccc(Cl)cc2)c2ccc(OCCN(CC)CC)cc2)cc1 | 3.73 | 21.4 | 16.5 | 3.21 | 4.04 | 19 | 20.7 | 5.93 | 16.3 | 19.4 | 1.68 | 6.98 | 4.25 | 1.55 | 2.06 | 3.81 | 5.29 | 2.83 | 3.99 | 4.16 |
| COc1ccc(-n2cc(-c3cc(OC)c(OC)c(OC)c3)nc2SCc2cccc(C#N)c2)cc1OC | > 100 | > 100 | > 100 | > 100 | > 100 | > 100 | > 100 | > 100 | > 100 | 39.6 | > 100 | 65 | > 100 | 46 | > 100 | 95.8 | > 100 | > 100 | > 100 | 2.12 |
| O=CNC(Cc1cnc[nH]1)C(=O)O (stereo not drawn) | > 100 | > 100 | > 100 | > 100 | > 100 | > 100 | > 100 | > 100 | > 100 | > 100 |  |  |  |  |  |  |  |  |  |  |
| CC(C)(C)OC(=O)N(CCCCN(CCCn1c2c(c3ccccc3c1=O)C(=O)c1ccccc1-2)C(=O)OC(C)(C)C)CCCn1c2c(c3ccccc3c1=O)C(=O)c1ccccc1-2 | > 100 | > 100 | > 100 | > 100 | > 100 | > 100 | > 100 | > 100 | > 100 | > 100 | 23.4 | 69.6 | 30.1 | 1.9 | 92.8 | 58.5 | > 100 | 65.1 | 19.9 | > 100 |
| COc1ccc(-c2cn(C)c3c2-n2cccc2C3=O)cc1O | 9.15 | 21.4 | 25.3 | 26.5 | 12.2 | 50.5 | 8.29 | 55.3 | 7.77 | > 100 | 1.86 | 3.39 | 3.39 | 11.1 | 3.27 | 11.4 | 3.05 | 19.7 | 2.09 | 25.6 |
| C[C@H]1C[C@@H](n2c(Nc3ccc(OC(F)(F)F)cc3)nc3cc(CCC(=O)O)ccc32)CC(C)(C)C1 | 18.9 | 25.8 | 27.5 | 18.5 | 17.7 | 27.7 | 46.9 | 34.6 | 28.8 | 29.1 | 5.69 | 13 | 11.7 | 5.04 | 4.91 | 12.1 | 20.6 | 15 | 15.4 | 11.2 |
| COc1ccc2nc3cc(Cl)ccc3c(Nc3ccccc3-c3ccccc3Nc3c4ccc(Cl)cc4nc4ccc(OC)cc34)c2c1 | > 66.9 | > 78.4 | > 100 | > 100 | > 66.3 | > 72.7 | > 100 | > 73.7 | > 88.1 | 81.6 |  |  |  |  |  |  |  |  |  |  |
| CC(NCCN(C)C)C1CCC2C3CCc4cc(O)ccc4C3CCC12C (stereo not drawn) | 9.49 | 4.37 | 8.97 | 7.7 | 3.45 | 17.5 | 6.63 | 3.79 | 4.32 | 9.55 |  |  |  |  |  |  |  |  |  |  |
| CC(=O)c1cc2c(Br)cccc2oc1=O | > 100 | > 100 | > 100 | > 100 | > 100 | > 100 | > 100 | > 100 | > 100 | > 100 |  |  |  |  |  |  |  |  |  |  |
| COc1ccc2[nH]c3c(C)c4c(c(C)c3c2c1)CN(C)C=C4 | 75.1 | 34.9 | > 100 | 22.1 | 28.1 | 0.815 | 65.8 | 9.8 | 57.5 | 18.2 |  |  |  |  |  |  |  |  |  |  |
| Cc1cc(NC(=O)NCCOc2ccc(N3C(N)=NC(N)=NC3(C)C)cc2Cl)ccc1S(=O)(=O)F | > 100 | > 71 | > 100 | > 100 | 35.2 | 99.5 | > 100 | 27.1 | > 100 | > 77.5 | 49 | 5.24 | > 100 | 0.545 | 0.726 | 1.64 | 6.23 | 5.29 | 55.4 | 2.75 |
| Nc1[nH]nc(Nc2ccccc2)c1-c1nc2ccccc2s1 | 3.04 | 3.76 | 6.64 | 2.71 | 2.96 | 8.83 | 9.1 | 8.9 |  | 11.8 | 1.18 | 1.7 | 2.11 | 1.29 | 1.4 | 2.36 | 3.02 | 2.77 |  | 2.19 |
